Experiment [1] relates to highly enriched culture of strain VS. Kind of experiment: Batch dechlorination and growth, highly enriched culture of strain VS. Type of experiment: cell-based, Dehalococcoides species strain VS. As to conditions: for Final VC rate / Final cells: after utilization of the substance; for Final VC rate / Mass dechlorinated: duplicate bottles; for Final cells: duplicates, computed from VC rate; for Initial VC rate: before utilization of the substance, average and range of replicates; for Growth yield by competitive PCR: strain VS grown on the substance. As to the method:
(§1) The purpose of the second study was to compare dechlorination rates of PCE, TCE and DCE between the three different cultures that grew on VC (Victoria, KB-1/VC and Pinellas). The development of inocula here was performed with VC, just as in the first study. For the growth and substrate utilization experiments, triplicate bottles were set up for each culture containing 1 mL of inoculum and either neat PCE (0.4 μL), neat TCE (0.3 μL), saturated DCE solution (34 μL) or gaseous VC (200 μL). To further investigate TCE removal, bottles (120 mL) were filled with 20 mL of a highly enriched culture of strain VS made from the Victoria culture. Duplicate bottles were supplied with gaseous VC (50 μL on day 0, then 150 μL on day 3) or TCE (0.4 μL neat liquid). Dechlorination was followed until all VC or TCE was converted to ethene (day 12). The change in strain VS concentration during VC and TCE utilization was then determined both by competitive PCR and by an activity procedure evaluated previously for strain VS. In the activity procedure a non-growth limiting concentration of VC (150 μL) along with excess hydrogen is added to a culture and the initial dechlorination rate is measured (over <1 day). A good estimate of strain VS concentration can then be obtained using the previously determined strain VS maximum VC utilization rate (7.8×10^−10 μmol Cl^− (cell·d)^−1). The increase in strain VS concentration during TCE or VC utilization was determined with these two procedures on the culture before and after TCE and VC utilization.
Comparative dechlorination and growth kinetics. With mixed cultures, the concentration of organisms carrying out a particular reaction is generally unknown and difficult to determine. Thus, reaction rates with mixed cultures are generally reported in units that cannot be used for comparative purposes. For example, dechlorination rates have been reported in mass removal rate per microcosm or bottle, per unit liquid volume, per unit of total biomass or per unit of total protein. However, the approach described here allows us to make direct comparisons of basic dechlorination and growth kinetics between cultures. The main parameter used in this comparison is organism maximum growth rate, which is directly related to dechlorination kinetics. The maximum growth rate for each culture was determined from a least-squares model fit to experimental data. For this purpose, the dechlorination of TCE, DCE, and VC was modeled using Monod kinetics with competitive kinetics between the multiple electron acceptors involved in dechlorination (for the case when electron donor is non-rate-limiting):
Modeling approach. The above procedure was utilized to compare VC, DCE and TCE maximum growth rates between the Dehalococcoides like-microorganisms in the three cultures (strain VS, KB-1/VC and Pinellas). Previously determined VC and DCE half-velocity and competitive coefficients were included in this modeling approach (Table 2). Also, a previously determined decay coefficient (0.05 d^−1) for cells growing under optimal conditions (non-limiting electron acceptor and donor) was included. This leaves the maximum growth rates on individual chlorinated ethenes (μV, μD, or μT) as the only fitting parameters, which were determined, together with the 95% confidence interval) using non-linear least-squares fit to the experimental data.
DNA isolation and competitive PCR. For the Victoria, Pinellas, and KB-1/VC genomic DNA was extracted (1 mL) from the inoculum used in the VC growth comparison study and also from cultures in the comparative substrate utilization study following complete TCE dechlorination. DNA was extracted using a DNeasy® tissue system (Qiagen Inc, Valencia, Calif.), following the manufacture's instructions (final volume 200 μL). DNA was extracted from the D. ethenogenes strain 195 culture following dechlorination of DCE. […]

Another experiment relates to Pinellas culture. The experiment can be described thus: Batch dechlorination and growth kinetics, Pinellas culture. The format is cell-based, Dehalococcoides-like microorganisms. As to conditions: for Maximum Growth Rate: 95% confidence interval.
Excerpt: (§2) Stock cultures. The Victoria mixed culture, containing strain VS, was maintained in a closed continuously stirred tank reactor (CSTR) as previously described. A VC enrichment of this culture, maintained over 5 years, was also used in these investigations. Liquid cultures of the three other cultures evaluated (Pinellas, KB-1/VC, and Dehalococcoides ethenogenes strain 195) were kept in anaerobic bottles, stored in an anaerobic chamber (10% H2, 10% CO2, 80% N2). The bottles were amended with TCE (1-3 μL neat liquid), VC (250 μL gas), and PCE (1-3 μL neat liquid) being added to each, respectively, approximately every two weeks.
(§3) Batch studies. For the experimental portion of this research, two studies were undertaken, one a comparative VC growth study, and the other a comparative growth and substrate utilization study with different chlorinated ethenes. These studies compared the dechlorination abilities of Dehalococcoides ethenogenes strain 195 and the Dehalococcoides-like microorganisms in the three mixed cultures (Victoria, KB-1/VC, and Pinellas).
(§4) For the first study, a VC enriched inoculum was first developed for each of the three mixed cultures. Here, bottles (120 mL) were filled with 60 mL of anaerobic media in an anaerobic chamber as previously described, and inoculated with 200 μL of each stock culture. Gaseous VC (99.5%) was added with a gas tight syringe (200 μL). The cultures were then moved to a shaker (60-80 rpm) in an anaerobic chamber (20±2° C.). Immediately after 5 μmol of ethene was formed in a bottle, 200 μL of the culture was transferred to fresh media (60 mL), in triplicate, and VC was again added (200 μL). The inoculum for the growth study was that formed after exactly 4 μmol of ethene was produced following this second transfer. To compare growth rates on VC, a range in concentration of each inocula (0.1, 0.3, 1, 3, 9 mL) was transferred to fresh media (as above) to result in a liquid volume of 60 mL, and gaseous VC (200 μL) was added to each. […] Hydrogen served as the electron donor and was non-limiting (>3%) in all studies. Headspace samples were periodically removed by syringe (250 μL) for chlorinated ethene analyses.
as §1
(§5) Comparative dechlorination and growth kinetics. With mixed cultures, the concentration of organisms carrying out a particular reaction is generally unknown and difficult to determine. […]

The subject of experiment [2] is Victoria mixed culture, containing strain VS. Kind of experiment: Batch dechlorination and growth kinetics, Victoria mixed culture. The format is cell-based, Dehalococcoides species strain VS. As to conditions: for Maximum Growth Rate: VS Mixed (Victoria) culture, 95% confidence interval, least-squares model fit.
Excerpt: as §2, §3, §4, §1, §5

In another experiment the test system is KB-1/VC culture. The experiment can be described thus: Batch dechlorination and growth kinetics, KB-1/VC culture. Type of experiment: cell-based, Dehalococcoides-like microorganisms. As to conditions: for Maximum Growth Rate: 95% confidence interval.
Excerpt: as §2, §3, §4, §1, §5

Structures are written as SMILES. Where “and” joins values, the source holds several entries; their conditions need not be identical. Equal values may be shown once. Marks after values point to notes of the source that are not given here.

As to `ClC=C(Cl)Cl` [TCE, trichloroethene], in experiment [1] (Highly enriched culture), the “Half velocity coefficient KT” value turned out to be 12.4 ± 0.6 µM. For the same compound, the “Maximum Growth Rate” value in experiment [1] (Highly enriched strain VS culture, 95% confidence interval) was 0.35 day⁻¹ and 0.35 ± 0.13 day⁻¹. Moreover, in experiment [1], the “Final VC rate” value is 312 µmol·days/L and 204 µmol·days/L; the Final cells is 4.0 × 10^11 cell L^−1 and 2.6 × 10^11 cell L^−1; the “Initial VC rate” value is given as 28 ± 2^a nmol (d · L)^−1; the Mass dechlorinated is 10.94 µmol and 8.97 µmol. In addition, in experiment [1], the “Growth yield by competitive PCR” value was 4.7±0.3×10^8 cell/μmol Cl^−. Further, in the experiment on Pinellas culture, the “Half velocity coefficient KT” value was determined as 10.5 ± 0.7 µM; the “Maximum Growth Rate” value is 0.49 day⁻¹ and 0.49 ± 0.03 day⁻¹. The “Maximum Growth Rate” value in experiment [2] was determined as 0.35 ± 0.07 day⁻¹. The “Half velocity coefficient KT” value in experiment [2] (VS Mixed culture) turned out to be 9.0 ± 0.4 µM. Besides, in the experiment with KB-1/VC culture, the “Half velocity coefficient KT” value worked out at 10.0 ± 2.0 µM and the “Maximum Growth Rate” value worked out at 0.33 ± 0.06 day⁻¹.
Regarding `C=CCl` [VC, vinyl chloride], in experiment [1], the “Final VC rate” value was 228 µmol·days/L and 204 µmol·days/L. Also, in experiment [1], the Final cells is 2.9 × 10^11 cell L^−1 and 2.6 × 10^11 cell L^−1. Further, the “Initial VC rate” value in experiment [1] is recorded as 28 ± 2^a nmol (d · L)^−1. Moreover, the Mass dechlorinated in experiment [1] was 10.39 µmol and 10.52 µmol. Besides, the “Growth yield by competitive PCR” value in experiment [1] is 5.2±0.4×10^8 cell/μmol Cl^−. In addition, the “Maximum Growth Rate” value is 0.28 day⁻¹ and 0.28 ± 0.01 day⁻¹ with Pinellas culture; 0.49 day⁻¹ and 0.49 ± 0.02 day⁻¹ in experiment [2]; 0.42 day⁻¹ and 0.42 ± 0.03 day⁻¹ in the experiment with KB-1/VC culture. The “time to form 5 μmol of ethene” value is recorded as 21 days in the experiment with Pinellas culture (200 μL VC); 18 days in experiment [2] (Victoria culture, 200 μL VC); 18 days with KB-1/VC culture (200 μL VC).
